# Experimental data reported in patent US4435404A, “Carbostyril derivatives” (priority 1980, dated 1984).
# What was measured:
# [1] = test system: arterial papillary muscle; assay: Positive inotropic effect, blood-perfused arterial papillary muscle; design: species or system dog; conditions: into septal artery
# Protocol: Positive inotropic effects of the novel carbostyril derivatives of the present invention were tested according to a method described by M. Endoh and K. Hashimoto, in "American Journal of Physiology", Vol. 218, No. 5, May, 1970, pages 1459-1463 as follows:
# Adult bastard dogs of both sexes, weighing 8-12 kg, were anesthetized with pentobarbital-Na at a rate of 30 mg/kg by intraveneous administration. After another intraveneous administration of sodium heparin, 1,000 μ/kg, the test dog was sacrificed by blood letting. The heart of the dog was excised and immediately plunged into Locke's solution, then the arterial papillary muscle was excised out with interventicular septum. The septal artery was carefully isolated and cannulated with a polyethylene cannula and was ligated with thread. Septal arteries those of connected to other than the arterial papillary muscle were ligated with thread. Next, the donor adult bastard dogs, weighing 18-27 kg, were anesthetized with pentabarbital-Na (30 mg/kg, intraveneous injection), and further treated with intravenous administration of sodium heparin (1,000 μ/kg). The arterial papillary muscle was perfused through the septal artery being cannulated with the polyethylene cannula with the blood conducted from the carotid artery of the donor dog by aid of Peristaric pump. The perfusion pressure was maintained at 100 mmHg constantly. Then the muscle was electrically stimulated by an electronic stimulator through bipolar electrodes in contact with the interventicular septum. The strength of stimulation was 2 X (the minimum value for appearing the action), frequency 2 Hz, pulse duration 2 msec.
# The isometric contraction generated was measured through a force-displacement transducer. The amount of blood flow in the coronary arteries was measured by determining the amount of the blood flow conducted to the septal artery by electromagnetic flow meter. All the data were recorded on an ink-writing recorder.
# A solution containing a compound to be tested was injected into the septal artery through the rubber tube connected close to the shunk of the polyethylene cannula, in an amount of 10-30 μl.
# The results obtained is shown in Table 4, in which the increasement (%) of contraction is indicated as the ratio of the contractions before and after the administration (injection) of the solution containing the test compound.
# [2] = test system: Deoxycorticosteroneacetate (DOCA)/saline hypertension rats (DHR); assay: Hypotensive effect, Tail-cuff method, DHR; assay type: in vivo, rat; conditions: 30 mg/kg oral, mean value ± standard deviation
# Protocol: (§1) Hypotensive effect of the compounds were measured by determining the maximum blood pressure of the test animals according to a procedure of Tail-cuff method.
# (§2) Test animals used were the following two types.
# (2) Deoxycorticosteroneacetate (DOCA)/saline hypertension rats (DHR)
# Wistar strain male rats having 150-170 g of body weight, were anesthetized with ether and the left-side kidney was enucleated. One (1) week after the operation, 10 mg/kg of DOCA was injected subcutaneously once a week and 1% NaCl aqueous solution was given as drinking water. Five (5) weeks after the operation, rats having the maximum blood pressure over 150 mmHg were selected and used as test animals which were abstained from food for overnight.
# (§3) Each of compounds to be tested were administered orally and the blood pressure was measured before the administration and 1, 2, 4, 6 and 8 hours after the administration. The blood pressure was measured by using Recorder (Rectihoriz type 8S, San-ei Instrument) and Electrosthygmomanometer PE-300 (Macro Bio-systems, Houston, Tex.).
# [3] = test system: Gold blatt type renoprival hypertension rats (RHR); assay: Hypotensive effect, Tail-cuff method, RHR; assay type: in vivo, rat; conditions: 30 mg/kg oral, mean value ± standard deviation
# Protocol: as §1, §2
# (1) Gold blatt type renoprival hypertension rats (RHR)
# Wistar strain male rats having, 160-180 g of body weight, were anesthetized with ether and the left-side renal artery was pluged with a silver clip having 0.2 mm inside diameter, while the right-side renal artery was kept as it was without operation. Four (4) weeks after the operation, rats having the maximum blood pressure over 150 mmHg were selected and used as test animals which were abstained from food for overnight.
# as §3
# bastard dog = assay: Increasing effect of cerebral blood flow; assay type: in vivo; conditions: profunda femoris vein
# Protocol: Thus, a bastard dog (male, 12-20 kg of body weight) was fixed in a prone (position) and was anesthetized with 20 mg/kg of pentobarbital sodium and made forced breathing to kept the frequency of respiration at 20 times/minutes. Then, the skull was bared and the surface bone was removed to expose the venous sinus by using grinder and the venous blood was took out from the venas which was cannulizated. The amount of venous blood flow was measured by using an electromagnetic blood flow meter and next measured by using drop-counter by measuring the number of drops of blood per 10 seconds.
# The increasing effect of cerebral blood flow was calculated by comparing the number of blood drops in 30 seconds at the peak of increasement shown before and after the administration of compound to be tested. The each of compounds to be tested was dissolved in dimethylformamide and diluted with physiological saline solution and administered through a cannule being inserted into the profunda femoris vein.
compound,measurement,setting,value
"6-{3-[N-(2-hydroxyethyl)-N-cyclohexylaminocarbonyl]propoxy}-3,4-dihydrocarbostyril [Example 2]",Increasing of inotropic,[1]; dosage 10 n mol,38.9%
same,Increasing of inotropic,[1]; dosage 30 n mol,94.3%
same,Maximum blood pressure after the administration (difference),[2]; 1 hour,-63.0 ± 9.1 mmHg
same,Maximum blood pressure after the administration (difference),[2]; 2 hours,-30.4 ± 9.9 mmHg
same,Maximum blood pressure after the administration (difference),[2]; 4 hours,-42.8 ± 5.5 mmHg
same,Maximum blood pressure after the administration (difference),[2]; 6 hours,-24.1 ± 6.8 mmHg
same,Maximum blood pressure after the administration (difference),[3]; 1 hour,-4.8 ± 6.4 mmHg
same,Maximum blood pressure after the administration (difference),[3]; 2 hours,-4.8 ± 3.7 mmHg
same,Maximum blood pressure after the administration (difference),[3]; 4 hours,-3.2 ± 4.0 mmHg
6-{4-[N-(2-Hydroxybutyl)-N-cyclohexylaminocarbonyl]butoxy}carbostyril [Example 13],Increasing effect of cerebral blood flow,bastard dog; dosage 30 μg/kg,98.9%
6-{3-[N-(4-Hydroxybutyl)-N-cyclohexylaminocarbonyl]propoxy}carbostyril [Example 7],Increasing effect of cerebral blood flow,bastard dog; dosage 300 μg/kg,80.2%
"7-{3-[N-(3-Hydroxypropyl)-N-cyclohexylaminocarbonyl]propoxy}-3,4-dihydrocarbostyril [Example 17]",Maximum blood pressure after the administration (difference),[2]; 1 hour,-2.5 ± 4.0 mmHg
same,Maximum blood pressure after the administration (difference),[2]; 2 hours,-8.7 ± 3.3 mmHg
same,Maximum blood pressure after the administration (difference),[2]; 4 hours,-9.3 ± 8.6 mmHg
same,Maximum blood pressure after the administration (difference),[3]; 1 hour,-25.5 ± 7.0 mmHg
same,Maximum blood pressure after the administration (difference),[3]; 2 hours,-23.3 ± 9.6 mmHg
same,Maximum blood pressure after the administration (difference),[3]; 4 hours,-27.0 ± 14.1 mmHg
same,Maximum blood pressure after the administration (difference),[3]; 6 hours,-33.7 ± 10.2 mmHg
same,Maximum blood pressure after the administration (difference),[3]; 8 hours,-29.8 ± 9.7 mmHg
same,Increasing effect of cerebral blood flow,bastard dog; dosage 100 μg/kg,34.4%
"6-{4-[N-(2-Hydroxypropyl)-N-cyclohexylaminocarbonyl]butoxy}-3,4-dihydrocarbostyril [Example 8]",Increasing of inotropic,[1]; dosage 30 n mol,38.7%
same,Increasing of inotropic,[1]; dosage 100 n mol,89.4%
"6-{3-[N-(2-Hydroxybutyl)-N-cyclohexylaminocarbonyl]propoxy}-3,4-dihydrocarbostyril [Example 4]",Increasing of inotropic,[1]; dosage 10 n mol,10%
same,Increasing of inotropic,[1]; dosage 100 n mol,62.5%
same,Increasing effect of cerebral blood flow,bastard dog; dosage 300 μg/kg,64.2%
"6-{4-[N-(2-Hydroxyethyl)-N-cyclohexylaminocarbonyl]butoxy}-3,4-dihydrocarbostyril [Example 9]",Maximum blood pressure after the administration (difference),[2]; 1 hour,-51.2 ± 14.0 mmHg
same,Maximum blood pressure after the administration (difference),[2]; 2 hours,-44.6 ± 14.6 mmHg
same,Maximum blood pressure after the administration (difference),[2]; 4 hours,-42.4 ± 13.9 mmHg
same,Maximum blood pressure after the administration (difference),[2]; 6 hours,-34.0 ± 10.2 mmHg
same,Maximum blood pressure after the administration (difference),[3]; 1 hour,-10.1 ± 6.2 mmHg
same,Maximum blood pressure after the administration (difference),[3]; 2 hours,-11.6 ± 9.6 mmHg
same,Maximum blood pressure after the administration (difference),[3]; 4 hours,-14.2 ± 5.0 mmHg
same,Maximum blood pressure after the administration (difference),[3]; 6 hours,-8.0 ± 2.6 mmHg
same,Increasing effect of cerebral blood flow,bastard dog; dosage 100 μg/kg,85.3%
"6-{4-[N-(2-Hydroxybutyl)-N-cyclopentylaminocarbonyl]butoxy}-3,4-dihydrocarbostyril [Example 12]",Increasing effect of cerebral blood flow,bastard dog; dosage 300 μg/kg,73.5%
"6-{5-[N-(2-Hydroxybutyl)-N-cyclohexylaminocarbonyl]pentyloxy}-3,4-dihydrocarbostyril [Example 16]",Maximum blood pressure after the administration (difference),[2]; 1 hour,-20.2 ± 8.0 mmHg
same,Maximum blood pressure after the administration (difference),[2]; 2 hours,-21.2 ± 9.7 mmHg
same,Maximum blood pressure after the administration (difference),[2]; 4 hours,-16.2 ± 6.8 mmHg
same,Maximum blood pressure after the administration (difference),[2]; 6 hours,-6.5 ± 8.5 mmHg
same,Increasing effect of cerebral blood flow,bastard dog; dosage 100 μg/kg,63.2%
"COc1ccc(Cc2nccc3cc(OC)c(OC)cc23)cc1OC [Papaverin, papaverine, reference compound]",Increasing effect of cerebral blood flow,"bastard dog; dosage 1,000 μg/kg",86.0%
"6-{4-[N-(2,3-Dihydroxypropyl)-N-cyclohexylaminocarbonyl]butoxy}carbostyril [Example 14]",Increasing effect of cerebral blood flow,bastard dog; dosage 100 μg/kg,51.6%
"6-{3-[N-(2-Hydroxyethyl)-N-cyclooctylaminocarbonyl]propoxy}-3,4-dihydrocarbostyril [Example 5]",Increasing effect of cerebral blood flow,bastard dog; dosage 100 μg/kg,43.5%
